Reference: PubChem BioAssay (NCI)
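Results reflect a 48-hour exposure of cells in 96-well plates to compound at five concentrations. GI50 marks 50% less growth. TGI: total growth inhibition.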

Tests used:
Assay in all cases: NCI anticancer screen, dose series, 48 h
M14 melanoma = tested on: M14 melanoma
A498 renal = tested on: A498 renal
HCT-116 colon = tested on: HCT-116 colon
NCI-H23 lung = tested on: NCI-H23 lung
SK-MEL-28 melanoma = tested on: SK-MEL-28 melanoma
UACC-257 melanoma = tested on: UACC-257 melanoma
MALME-3M melanoma = tested on: MALME-3M melanoma
MDA-MB-231 breast = tested on: MDA-MB-231 breast

Row | SMILES | GI50 (M14 melanoma) [µM] | TGI (M14 melanoma) [µM] | GI50 (A498 renal) [µM] | TGI (A498 renal) [µM] | GI50 (HCT-116 colon) [µM] | TGI (HCT-116 colon) [µM] | GI50 (NCI-H23 lung) [µM] | TGI (NCI-H23 lung) [µM] | GI50 (SK-MEL-28 melanoma) [µM] | TGI (SK-MEL-28 melanoma) [µM] | GI50 (UACC-257 melanoma) [µM] | TGI (UACC-257 melanoma) [µM] | GI50 (MALME-3M melanoma) [µM] | TGI (MALME-3M melanoma) [µM] | GI50 (MDA-MB-231 breast) [µM] | TGI (MDA-MB-231 breast) [µM]
1 | O=c1cc(-c2ccccc2)nc2cc(-c3ccco3)[nH]n12 | 9.45 | > 100 | 3.6 | 28.6 | 15.7 | > 100 | 13.2 | 89.1 | 8.78 | > 100 | 17.3 | > 100 | 3.47 | 94.5 | 7.84 | > 100
2 | O=C1C(Cl)=C(Nc2ccccn2)C(=O)c2ccccc21 | 2.07 | 3.84 | 12.9 | 25.6 | 1.95 | 4.1 | 2.18 | 7.4 | 2.09 | 3.92 | 1.91 | 3.84 | 1.81 | 3.65 | 3.23 | 16.6
3 | [O]=[W](=[O])([OH])[OH] | > 100 | > 100 | > 100 | > 100 | > 100 | > 100 | > 100 | > 100 | > 100 | > 100 | > 100 | > 100 | > 100 | > 100 | > 100 | > 100
4 | COc1ccc2c(c1)c(-c1nc(-c3cn(C)c4ncccc34)cs1)cn2CCCCN1CCOCC1 | 0.606 | 1.28 | 0.164 | 1.78 | 1.8 | 3.91 | 2.02 | 5.58 | 1.5 | 2.97 | 1.66 | 3.28 | 1.65 | 3.41 | 0.941 | 2.49
5 | COc1cc(CCNc2nc3cc(N)cc(N)c3nc2-c2ccccc2)cc(OC)c1 | 2 | 4.05 | 3.95 | 14.3 | – | – | 1.59 | 3.58 | 1.63 | 3.31 | 1.76 | 3.61 | 1.18 | 2.53 | 1.57 | 4.55
6 | O=C(OC(CNc1c(C(=O)c2ccccc2)c(=O)n(Cc2ccccc2)c(=O)n1Cc1ccccc1)CN1CCCCC1)c1ccccc1 (configuration not stated) | 16.3 | 31.1 | 32.3 | 76.5 | 14.9 | 28.1 | 18.5 | 39.2 | – | – | 15.1 | 32.5 | 18.5 | 40.7 | 17.6 | 32.4
